Patent US20230381142A1, “ANTILEISHMANIAL COMPOUNDS, COMPOSITIONS AND USE THEREOF” (TRUSTEES OF BOSTON UNIVERSITY, priority 2022, published 2023)
Marks after values point to notes of the source that are not given here.

Experiments:
[1] = GSK inMac assay, host cell toxicity readout (LD MAC); format: cell-based, human; details: human; footnote c; read-out: THP-1 Host Cell CC50
In short: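 MAC EC50 reflects THP-1 host cell counts, measured within GSK's inMac L. donovani infection assay that also scores intracellular amastigotes and infected-cell percentage.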

[2] = test system: L. donovani intracellular amastigotes in B10R cells; experiment: UCSD L. donovani infection assay (Assay Conditions D); format: cell-based; details: B10R cells; for L. donovani amastigotes EC75 (B10R cells): footnote d; for EC50: Leishmania donovani, values marked d, read-out: L. donovani amastigotes EC50 (B10R cells)
In short: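 Compounds, either single-point at 10 μM or 10-point 2-fold series (3 technical, 2 biological replicates), were incubated 72 h at 37° C. with B10R host cells co-seeded with day-7 stationary L. donovani promastigotes (20:1). DAPI-stained nuclei imaging yielded intracellular parasite EC50 and host-cell CC50.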

[3] = UCSD infection assay, host cell cytotoxicity (CC50); format: cell-based; details: mouse, B10R host cells infected with L. donovani; footnote d
Experimental: (§1) Assay Conditions D: B10R cells (CVCL_0155) were seeded at 300 cells/well, and L. donovani WT promastigotes in stationary phase (7th day after passage) were added at 6,000 parasites/well (ratio of 20 parasites/cell). Both cells and parasites were seeded in DMEM High-Glucose medium (Gibco, cat. no. 11995065) containing 5% Fetal Bovine Serum (Sigma-Aldrich, cat. no. F2442) and 1% Penicillin-Streptomycin (Gibco, cat. no. 15140122). Cells and parasites were incubated in the presence of the compounds for 72 h at 37° C. and 5% C02. Plates were then fixed with 4% formaldehyde solution for at least 1 h, then washed with 1×PBS and stained with 5 μg/mL DAPI. Plates were read using an ImageXpress microscope (Molecular Devices) and analyzed by MetaXpress software (Molecular Devices) using a custom module optimized for this assay. […] Compounds were tested in a 10-point 2-fold serial dilution in 3 technical replicates, and 2 biological replicates. After 72 h, plates were fixed and stained with DAPI as described above. Images were acquired on an ImageXpress microscope, and analyzed using the MetaXpress custom module.
as §1, with “Compounds were obtained as 0.2 μmoles of dried film for primary single point screening. Each compound was diluted in DMSO to 10 μM final testing concentration. These compounds were tested in 2 biological replicates. The compounds were pre-spotted onto 384-well assay plates in single concentration.” for “Assay Conditions D:”, “CO2.” for “C02.”, “module. The DRCs were plotted, half-effective concentration (EC50) and half-cytotoxic concentration (CC50) were calculated using GraphPad Prism Software, version 6.05 (GraphPad Software, San Diego, CA).” for “module.”

[4] = test system: L. major (strain Friedlin) in J774 cells; experiment: J774 luciferase infection assay (Assay Conditions E); format: cell-based, Leishmania major; details: values marked e
Experimental: (§2) Assay Conditions E: J774 cells (ATCC J774A.1 were grown in DMEM supplemented with 10% Fetal Bovine Serum (FBS) and 1% Penicillin-Streptomycin at 37° C. in 5% CO2. Leishmania parasites expressing luciferase and GFP were grown as described in Front. Cell. Infect. Microbiol (2019) 9:237. J774 cells were seeded in microwell plates at 3×10^5 cells/mL density. Cells were washed with PBS and incubated with complete DMEM medium containing stationary phase Leishmania promastigotes (L. major: strain Friedlin; L. braziliensis, strain BA788) at a 1:10 parasite-cell ratio for 24 h. Cells were washed with PBS. Cells and compounds were incubated for 48 h at 37° C. and 5% C02. Compounds were tested in 8-point 2-fold serial dilution in 4 technical replicates, and 2 biological replicates. After 48 h, OneTiterGlo (Promega) (100 μl) was added to each well. Plates were incubated for 15 min and bioluminescence was measured using a plate reader (Molecular Devices). Effective concentration inducing 75% activity (EC75) was calculated using GraphPad Prism Software (version 9.0).

[5] = test system: L. braziliensis (strain BA788) in J774 cells; experiment: as above; format: cell-based, Leishmania braziliensis; details: footnote e
Experimental: as §2

[6] = test system: L. donovani intracellular amastigotes infecting THP-1 macrophages; experiment: GSK intramacrophage L. donovani assay (LD AMMAC, inMac; Assay Conditions C); format: cell-based; details: Leishmania donovani; THP-1 cells; values marked c; read-out: L. donovani amastigotes EC50 (THP-1 cells)
In short: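 EC50 values come from counting amastigotes per infected THP-1 macrophage (AMMAC). Parallel read-outs give percentage of infected cells per well (INFCELL) and a macrophage-number toxicity EC50 (MAC).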

[7] = test system: L. braziliensis-infected macrophages; experiment: Macrophage (BMDM) infection with L. braziliensis and exposure to CMLDs; format: cell-based, Leishmania braziliensis
Experimental: Leishmania braziliensis (MIHOM/BR/00/BA788) and L. major (Friedlin) promastigotes were maintained in Schneider's medium (SIGMA) supplemented with 10% heat-inactivated FCS, 100 U/ml penicillin, 100 μg/ml streptomycin (all from Invitrogen).
BMDM were obtained as described above. Cells were resuspended in DMEM medium supplemented with 100 U/mL penicillin, […] streptomycin, and 10% heat-inactivated Fetal Bovine Serum (all from Invitrogen) and seeded at a density of 3×10^5 cells per well in 24-well culture plates. Monolayers received 3×10^6 cells L. braziliensis promastigotes and were incubated at 37° C. in supplemented DMEM medium for 24 h. Infected macrophages were then washed to remove non-internalized parasites. Compounds CMLD 011128, CMLD010947, CMLD010498, and CMLD011494 were added at different concentrations. After 24 hours, cells were extensively washed, fixed and stained with hematoxylin and eosin (H&E). The number of infected cells and of intracellular amastigotes were counted by optical microscopy in 200 macrophages. Positive controls consisted of cultures treated with Amphotericin B (0.25 μg/mL, Invitrogen). Cultures were performed in quintuplicate. Alternatively, infected macrophages were treated as described, monolayers were extensively washed and the medium was replaced by 0.5 ml of supplemented Schneider medium. Cells were cultured for seven additional days at 26° C., when number of viable promastigotes was determined using hemocytometer.
Results were expressed as the mean percentage reduction of infected cells compared with untreated control wells. Half-maximal effective concentrations (EC50) were determined by sigmoidal regression curves using Prism 7.0 software (GraphPad Software Inc.)

Row | SMILES | CC50 [1] [µM] | L. donovani amastigotes EC75 (B10R cells) [2] [µM] | EC50 [2] [µM] | CC50 at 72 h [3] [µM] | L. major amastigotes EC75 (J774 cells) [4] | L. braziliensis amastigotes EC75 (J774 cells) [5] [µM] | EC50 [6] [µM] | leishmanicidal effect on L. braziliensis infection in vitro [7] | percentage of infected macrophages ([7]; L. braziliensis, 24 h exposure)
1 | COc1ccc(N2C(=O)c3[nH]nc(CC(C)C)c3C2c2ccccc2Cl)cn1 (centres unmarked) [BUCMD00686] | 9.9 | 0.5 | 1.1 | 10 | >10^e μM | 1.0 | – | – | –
2 | COc1ccc(N2C(=O)c3[nH]nc(CC(C)C)c3C2c2ccc(F)cc2)cc1F (centres unmarked) [CMLD010884] | 25.1 | 0.8 | – | 20 | 7.2^e μM | >10 | 1.3 | – | –
3 | COc1ccc(N2C(=O)c3[nH]nc(CC(C)C)c3C2c2ccccc2Cl)cc1 (centres unmarked) [CMLD010893] | 20 | 0.3 | – | 6.31 | 8.3^e μM | >10 | 1.3 | – | –
4 | CC(C)Cc1n[nH]c2c1C(c1ccc(F)cc1)N(c1ccc3c(c1)OCO3)C2=O (centres unmarked) [CMLD010901] | 25.1 | 0.4 | – | 12.6 | 6.0^e μM | 8.7 | 0.6 | – | –
5 | CC(C)Cc1n[nH]c2c1C(c1ccccc1Cl)N(c1ccc3c(c1)OCO3)C2=O (centres unmarked) [CMLD010902] | 12.2 | – | 0.2 | – | 7.3^e μM | >10 | – | – | –
6 | COc1ccc(N2C(=O)c3[nH]nc(CC(C)C)c3[C@@H]2c2ccc(F)cc2)cc1 [CMLD011128] | > 20 | 0.5 | – | – | – | 7.5 | 0.8 | did not show leishmanicidal effects | did not decrease
7 | CC(C)Cc1n[nH]c2c1C(c1ccccc1Br)N(c1ccc3c(c1)OCO3)C2=O (centres unmarked) [CMLD011548] | > 20 | – | 0.3 | – | 1.8^e μM | 5.2 | – | – | –
8 | CC(C)Cc1n[nH]c2c1C(c1ccccc1Br)N(c1ccc(N(C)C)cc1)C2=O (centres unmarked) [CMLD011554] | 5.7 | 0.1 | 0.1 | 6.31 | 5.2^c μM | 2.9 | – | – | –
9 | Cc1cc(F)ccc1C1c2c(CC(C)C)n[nH]c2C(=O)N1c1ccc(N(C)C)cc1 (centres unmarked) [CMLD011561] | 7.5 | 0.1 | 0.1 | 7.94 | 1.9^e μM | 2.1 | – | – | –
10 | COc1ccc(N2C(=O)c3[nH]nc(CC(C)C)c3C2c2ccc(F)cc2C)cc1F (centres unmarked) [CMLD011562] | 10.9 | 0.2 | 0.2 | 10 | 2.7^e μM | 5.2 | – | – | –
11 | Cc1cc(F)ccc1C1c2c(CC(C)C)n[nH]c2C(=O)N1c1ccc2c(c1)OCO2 (centres unmarked) [CMLD011564] | 12.1 | 0.1 | 0.1 | 12.6 | 1.4^e μM | 4.9 | – | – | –
12 | COc1cc(F)ccc1C1c2c(CC(C)C)n[nH]c2C(=O)N1c1ccc(N(C)C)cc1 (centres unmarked) [CMLD011572] | 8.5 | – | – | 10 | 1.3^e μM | 1.9 | – | – | –
13 | COc1ccc(N2C(=O)c3[nH]nc(CC(C)C)c3C2c2ccc(F)cc2OC)cn1 (centres unmarked) [CMLD011574] | > 20 | 0.3 | 0.3 | – | 4.8^e μM | 8.2 | – | – | –
